Target: aldosterone synthase (CYP11B2) (Macaca fascicularis, UniProt A0A2K5UPL9)
Assay: aldosterone synthase inhibition assay
Assay type: biochemical, cynomolgus monkey
Settings: cynomolgus adrenal gland mitochondria, 2 μM corticosterone, aldosterone quantified by mass spectrometry
Procedure, shortened: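 Cynomolgus adrenal mitochondria ([…]) used as CYP11B2 source with 2 μM corticosterone in 100 mM potassium phosphate pH 7.4, 1% DMSO; reaction started with 1 mM NADPH, run 60-90 min at 37° C. Aldosterone measured by mass spectrometry; IC50 from 4-parameter logistic fit, no-NADPH blank as 0%.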

Chain of aldosterone synthase (CYP11B2) (A0A2K5UPL9 1-503): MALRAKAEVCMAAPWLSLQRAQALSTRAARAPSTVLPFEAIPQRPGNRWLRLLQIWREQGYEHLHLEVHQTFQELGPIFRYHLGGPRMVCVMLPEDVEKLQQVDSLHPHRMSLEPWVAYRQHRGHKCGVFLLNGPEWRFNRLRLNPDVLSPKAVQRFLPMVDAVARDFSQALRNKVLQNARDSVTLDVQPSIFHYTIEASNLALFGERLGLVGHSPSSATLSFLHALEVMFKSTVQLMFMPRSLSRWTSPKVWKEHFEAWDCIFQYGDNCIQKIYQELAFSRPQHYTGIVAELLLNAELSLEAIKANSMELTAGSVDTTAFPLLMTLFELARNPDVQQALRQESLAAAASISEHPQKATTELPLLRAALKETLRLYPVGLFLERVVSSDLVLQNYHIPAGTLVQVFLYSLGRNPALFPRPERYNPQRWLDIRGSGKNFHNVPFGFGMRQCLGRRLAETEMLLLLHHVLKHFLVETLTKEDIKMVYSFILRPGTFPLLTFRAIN

| IC50 [nM] | SMILES |
| --- | --- |
| 2800 | CC1(O)CCOc2ccc(-c3cncc4c3COCC4O)cc21 (single isomer, unassigned) [Compound 139, 8-(4-Hydroxy-4-methyl-chroman-6-yl)-3,4-dihydro-1H-pyrano[4,3-c]pyridin-4-ol] |
| 28.5 | Cn1ncc2ccc(-c3cncc4c3COCC4NS(C)(=O)=O)cc21 (single isomer, unassigned) [Compound 81, N-[8-(1-Methyl-1H-indazol-6-yl)-3,4-dihydro-1H-pyrano[4,3-c]pyridin-4-yl]-methanesulfonamide] |
| 26.3 | O=C1CCCc2ccc(-c3cncc4c3COCC4O)cc21 (single isomer, unassigned) [Compound 116, 7-(4-Hydroxy-3,4-dihydro-1H-pyrano[4,3-c]pyridin-8-yl)-3,4-dihydro-2H-naphthalen-1-one] |
| 271 | Cc1nnc2ccc(-c3cncc4c3COC3(CC3)C4O)cn12 (single isomer, unassigned) [Compound 93, 8-(3-methyl-[1,2,4]triazolo[4,3-a]pyridin-6-yl)spiro[1,4-dihydropyrano[4,3-c]pyridine-3,1′-cyclopropane]-4-ol] |
| 40.5 | OC1COCc2cncc(-c3ccc4cnccc4c3)c21 (single isomer, unassigned) [Compound 168, 5-Isoquinolin-6-yl-3,4-dihydro-1H-pyrano[3,4-c]pyridin-4-ol] |
| 738 | O=C1NCCOc2cc(-c3cncc4c3COCC4O)ccc21 (single isomer, unassigned) [Compound 145, 8-(4-Hydroxy-3,4-dihydro-1H-pyrano[4,3-c]pyridin-8-yl)-3,4-dihydro-2H-benzo[f][1,4]oxazepin-5-one] |
| 64.9 | NC(=O)N1CCCc2cc(-c3cncc4c3COCC4O)cnc21 (centres unmarked) [Compound 102, 6-(4-Hydroxy-3,4-dihydro-1H-pyrano[4,3-c]pyridin-8-yl)-3,4-dihydro-2H-[1,8]naphthyridine-1-carboxylic acid amide] |
| 8.5 | Cc1noc2ccc(-c3cncc4c3COCC4O)cc12 (single isomer, unassigned) [Compound 90, 8-(3-Methyl-benzo[d]isoxazol-5-yl)-3,4-dihydro-1H-pyrano[4,3-c]pyridin-4-ol] |
| 32.6 | CC(C)C(=O)NC1COCc2c(-c3ccc4cnn(C)c4c3)cncc21 (single isomer, unassigned) [Compound 77, N-[8-(1-Methyl-1H-indazol-6-yl)-3,4-dihydro-1H-pyrano[4,3-c]pyridin-4-yl]-isobutyramide] |
| 14 | N#CC1CC=C(c2cncc3c2COCC3O)CC1 (single isomer, unassigned) [Compound 192, 4-(4-Hydroxy-3,4-dihydro-1H-pyrano[4,3-c]pyridin-8-yl)-cyclohex-3-enecarbonitrile] |
| 70 | CC(C)(O)CC(=O)NC1COCc2c(-c3ccc4c(c3)CCC4=O)cncc21 (single isomer, unassigned) [Compound 153, 3-Hydroxy-3-methyl-N-[8-(1-oxo-indan-5-yl)-3,4-dihydro-1H-pyrano[4,3-c]pyridin-4-yl]-butyramide] |
| 42.8 | Cn1nc(C#N)c2ccc(-c3cncc4c3COCC4(C)O)cc21 (single isomer, unassigned) [Compound 177, 6-(4-Hydroxy-4-methyl-3,4-dihydro-1H-pyrano[4,3-c]pyridin-8-yl)-1-methyl-1H-indazole-3-carbonitrile] |
| 771 | OC1COCc2c(-c3ccc4c(c3)COCCO4)cncc21 (single isomer, unassigned) [Compound 108, 8-(2,3-Dihydro-5H-benzo[e][1,4]dioxepin-7-yl)-3,4-dihydro-1H-pyrano[4,3-c]pyridin-4-ol] |
| 14.5 | Cn1nc(C#N)c2ccc(-c3cncc4c3COCC4O)cc21 (single isomer, unassigned) [Compound 113, 6-(4-Hydroxy-3,4-dihydro-1H-pyrano[4,3-c]pyridin-8-yl)-1-methyl-1H-indazole-3-carbonitrile] |
| 1870 | CC1(O)CCOc2ccc(-c3cncc4c3COCC4O)cc21 (single isomer, unassigned) [Compound 137, 8-(4-Hydroxy-4-methyl-chroman-6-yl)-3,4-dihydro-1H-pyrano[4,3-c]pyridin-4-ol] |
| 253 | OC1CCOc2ccc(-c3cncc4c3COCC4O)cc21 (single isomer, unassigned) [Compound 134, 8-(4-Hydroxy-chroman-6-yl)-3,4-dihydro-1H-pyrano[4,3-c]pyridin-4-ol] |
| 238 | OC1COCc2c(-c3cc(Cl)c4cn[nH]c4c3)cncc21 (single isomer, unassigned) [Compound 130, 8-(4-Chloro-1H-indazol-6-yl)-3,4-dihydro-1H-pyrano[4,3-c]pyridin-4-ol] |
| 12.9 | Cn1ncc2c1C=C(c1cncc3c1COCC3O)CC2 (single isomer, unassigned) [Compound 187, 8-(1-Methyl-4,5-dihydro-1H-indazol-6-yl)-3,4-dihydro-1H-pyrano[4,3-c]pyridin-4-ol] |
| 2300 | OC1COCc2c(-c3ccc4nncn4c3)cncc21 (single isomer, unassigned) [Compound 100, 8-[1,2,4]Triazolo[4,3-a]pyridin-6-yl-3,4-dihydro-1H-pyrano[4,3-c]pyridin-4-ol] |
| 1300 | OC1COCc2c(-c3ccc4nncn4c3)cncc21 (single isomer, unassigned) [Compound 98, 8-[1,2,4]Triazolo[4,3-a]pyridin-6-yl-3,4-dihydro-1H-pyrano[4,3-c]pyridin-4-ol] |
| 340 | Cn1ncc2c1CC(c1cncc3c1COCC3O)CC2 (single isomer, unassigned) [Compound 190, 8-(1-Methyl-4,5,6,7-tetrahydro-1H-indazol-6-yl)-3,4-dihydro-1H-pyrano[4,3-c]pyridin-4-ol] |
| 38 | CCC(=O)NC1COCc2c(-c3ccc4c(c3)COCC4(F)F)cncc21 (single isomer, unassigned) [Compound 194, N-[8-(4,4-Difluoro-isochroman-7-yl)-3,4-dihydro-1H-pyrano[4,3-c]pyridin-4-yl]-propionamide] |

Continued, compound first:

| SMILES | IC50 [nM] |
| --- | --- |
| N#Cc1ccc(-c2cncc3c2COCC3O)cc1 (single isomer, unassigned) [Compound 4, 4-(4-Hydroxy-3,4-dihydro-1H-pyrano[4,3-c]pyridin-8-yl)-benzonitrile] | 42 |
| CCC(=O)NC1COCc2c(-c3ccc4c(c3)CC(=O)N4)cncc21 (single isomer, unassigned) [Compound 59, N-[8-(2-Oxo-2,3-dihydro-1H-indol-5-yl)-3,4-dihydro-1H-pyrano[4,3-c]pyridin-4-yl]-propionamide] | 179 |
| OC1COCc2c(-c3ccc4ncccc4c3)cncc21 (single isomer, unassigned) [Compound 35, 8-Quinolin-6-yl-3,4-dihydro-1H-pyrano[4,3-c]pyridin-4-ol] | 9.7 |
| N#Cc1ccc(-c2cncc3c2COCC3O)cc1 (single isomer, unassigned) [Compound 6, 4-(4-Hydroxy-3,4-dihydro-1H-pyrano[4,3-c]pyridin-8-yl)-benzonitrile] | 9.8 |
| Cc1c(-c2cncc3c2COCC3O)cnn1C (single isomer, unassigned) [Compound 41, 8-(1,5-Dimethyl-1H-pyrazol-4-yl)-3,4-dihydro-1H-pyrano[4,3-c]pyridin-4-ol] | 1000 |
| OC1COCc2c(-c3cnn(C4CC4)c3)cncc21 (single isomer, unassigned) [Compound 46, 8-(1-Cyclopropyl-1H-pyrazol-4-yl)-3,4-dihydro-1H-pyrano[4,3-c]pyridin-4-ol] | 302 |
| OC1COCc2c(-c3ccc4ncccc4c3)cncc21 (single isomer, unassigned) [Compound 22, 8-Quinolin-6-yl-3,4-dihydro-1H-pyrano[4,3-c]pyridin-4-ol] | 64.1 |
| CCC(=O)NC1COCc2c(-c3ccc4ocnc4c3)cncc21 (single isomer, unassigned) [Compound 56, N-(8-Benzooxazol-5-yl-3,4-dihydro-1H-pyrano[4,3-c]pyridin-4-yl)-propionamide] | 85.8 |
| OC1COCc2c(-c3ccc4cnccc4c3)cncc21 (single isomer, unassigned) [Compound 45, 8-Isoquinolin-6-yl-3,4-dihydro-1H-pyrano[4,3-c]pyridin-4-ol] | 5.8 |
| Cn1ncc2ccc(-c3cncc4c3COCC4C#N)cc21 (centres unmarked) [Compound 9, 8-(1-Methyl-1H-indazol-6-yl)-3,4-dihydro-1H-pyrano[4,3-c]pyridine-4-carbonitrile] | 5.7 |
| OC1COCc2c(-c3ccc4c(c3)OCCO4)cncc21 (single isomer, unassigned) [Compound 25, 8-(2,3-Dihydro-benzo[1,4]dioxin-6-yl)-3,4-dihydro-1H-pyrano[4,3-c]pyridin-4-ol] | 159 |
| OC1COCc2c(-c3ccccc3)cncc21 (single isomer, unassigned) [Compound 3, 8-Phenyl-3,4-dihydro-1H-pyrano[4,3-c]pyridin-4-ol] | 484 |
| OC1COCc2c(-c3ccc4c(c3)OCCCO4)cncc21 (single isomer, unassigned) [Compound 28, 8-(3,4-Dihydro-2H-benzo[b][1,4]dioxepin-7-yl)-3,4-dihydro-1H-pyrano[4,3-c]pyridin-4-ol] | 333 |
| Cn1ncc2cc(-c3cncc4c3COCC4O)ccc21 (single isomer, unassigned) [Compound 36, 8-(1-Methyl-1H-indazol-5-yl)-3,4-dihydro-1H-pyrano[4,3-c]pyridin-4-ol] | 17.5 |
| Cn1ncc2ccc(-c3cncc4c3COCC4N)cc21 (single isomer, unassigned) [Compound 71, 8-(1-Methyl-1H-indazol-6-yl)-3,4-dihydro-1H-pyrano[4,3-c]pyridin-4-ylamine] | 22.2 |
| CCC(=O)NC1COCc2c(-c3ccc4ncn(C)c4c3)cncc21 (single isomer, unassigned) [Compound 57, N-[8-(3-Methyl-3H-benzoimidazol-5-yl)-3,4-dihydro-1H-pyrano[4,3-c]pyridin-4-yl]-propionamide] | 219 |

— patent publication US9890171B2, “Aldosterone synthase inhibitors” (Boehringer Ingelheim International GmbH, priority 2014, dated 2018)
